Values joined by “and” are separate entries in the source; they are usually repeats but may differ in a detail not shown here. Identical values can stand only once. Like-named read-outs stand apart in the source and are kept apart here.
Experiments:
healthy subjects [1] = assay: Phase 5: cooling under meperidine plus IV ondansetron; format: in vivo, human
healthy subjects [2] = assay: Phase 3a: cooling with five contact-cooling pads under meperidine; format: in vivo, human
Source text: (§1) Mild hypothermia is induced and maintained in healthy subjects for up to several hours. […] Each volunteer is cooled using contact-cooling pads (Arctic Sun Energy Transfer Pads™, Medivance, Inc., Louisville, Colo., U.S.A.). Contact-cooling pads are applied to contact the subjects, and water at a controlled temperature is delivered to and circulated through the contact pads to effect the controlled cooling of each volunteer.

healthy subjects [3] = assay: Phase 1: cooling of healthy subjects with contact-cooling pads under meperidine; format: in vivo, human
Method: Four contact pads are applied to the thighs and chest of each subject and each subject is rapidly cooled with an objective of reducing core body temperature to 34-35° C. Core body temperatures are measured at the tympanic membrane and the rectum. Mean skin-surface temperature is determined from the weighted average of calf, thigh, chest, and upper arm skin temperatures. Thermoregulatory vasoconstriction is evaluated using forearm minus fingertip skin-temperature gradients. Temperatures are measured using Mon-a-Therm™ themocouple probes connected to Mallinckrodt Model 6510 two-channel electronic thermometers having an accuracy near 0.1° C. (Mallinckrodt Anesthesia Products, St. Louis, Mo., U.S.A.). Temperatures are recorded before cooling is started (i.e., baseline) and subsequently at 15-minute intervals.
Each of subjects 1-5 is administered a single dose of acetomiophen (1000 mg) within 20 minutes prior to treatment and is administered a bolus of intravenous (IV) meperidine (Demerol®, 25-75 mg) within 5 minutes of the start of cooling. Subjects also receive initial doses of chlorpromazine (Thorazine®, 12.5-25 mg, IV). Active cooling is initiated and the inlet water temperature is controlled to achieve a target tympanic temperature between 34° C. and 35° C. Additional doses of meperidine and/or chloropromazine are administered to maintain comfort and to prevent shivering. Active cooling and maintenance of hypothermia continues for up to five hours, after which subjects are actively re-warmed to tympanic and rectal temperatures of at least 36° C.
The presence of shivering is noted by physical examination, electromyographic artifact on continuous electrocardiography (ECG), or by subject report. Overall thermal comfort is evaluated at 15-min intervals with a 100-mm-long visual analog scale (VAS) on which 0 mm defines the worst imaginable cold, 50 mm identifies thermal neutrality, and 100 mm indicates unbearable heat. A new, unmarked scale is used for each assessment. Heart rate and oxyhemoglobin saturation are monitored using ECG and pulse oximetry; arterial blood pressure is recorded oscillometrically at 15-minute intervals.

healthy subjects [4] = assay: Subsequent test similar to Phase 5 with supplemental ondansetron dose; format: in vivo, human; conditions: one subject; ondansetron 8 mg initial dose and 8 mg supplemental dose 3.5 hours later
Method: Moreover, during a subsequent test conducted in a manner similar to that described for Phase 5, a subject is administered an initial dose of 8 mg of the ondansetron followed by a supplemental dose of 8 mg of the ondansetron administered 3.5 hours later.

healthy subjects [5] = conditions: Phase 4
Source text: as §1

healthy subjects [6] = conditions: Phase 6
Source text: Mild hypothermia is induced and maintained in healthy subjects for up to several hours. Table 1 summarizes data concerning the subjects for each phase of testing (Phases 1, 3a, 4, 5 and 6). Each volunteer is cooled using contact-cooling pads (Arctic Sun Energy Transfer Pads™, Medivance, Inc., Louisville, Colo., U.S.A.). Contact-cooling pads are applied to contact the subjects, and water at a controlled temperature is delivered to and circulated through the contact pads to effect the controlled cooling of each volunteer.
Five contact-cooling pads are applied to the thighs, back and abdomen of each subjects, and actively cooled. The pads cover and contact about 0.6 square meter of the subject's exterior body surface area, which is the area in heat transfer communication between the pads and the subject's body. Temperatures are measured in the same manner as in Phase 1 except that the rectal temperature probe is connected to a control module and the rectal temperature signal is used by the control module to adjust inlet water temperature via a feedback control algorithm to achieve a target core body temperature of 34.5° C.
A single oral dose of acetaminophen (1000 mg), is administered within 20 minutes prior to treatment. A bolus of IV meperidine (Demerol®, 50-100 mg) is given within 5 minutes of the start of active cooling. Additional doses of meperidine are administered to maintain comfort and to prevent shivering. Active cooling and maintenance of hypothermia continues for five hours. As in the Phase 1, the subjects are actively re-warmed to a tympanic and rectal temperatures of at least of 36° C. prior to termination of the experiment. Shivering, comfort, oxyhemoglobin saturation, and arterial blood pressure are recorded as in Phase 1.
Phase 5 Phase 5 proceeds as described for Phase 3a, except as noted. The temperature of water circulated to the contact-cooling pads is controlled to achieve a target core body temperature of 34.5° C. In addition to meperidine (Demerol®), subjects are also given an IV dose of 8 mg ondansetron (hydrochloride salt, Glaxo Wellcome). […]

[7] = Phase 3a, meperidine regimen, individual subjects
[8] = Phase 3a, meperidine regimen, mean of 5 subjects
[9] = meperidine regimen, mean of 5 subjects
[10] = Phase 5, meperidine plus ondansetron, mean of 6 subjects
[11] = meperidine plus buspirone, mean of 4 subjects
[12] = meperidine, ondansetron and magnesium sulfate, mean of 8 subjects

Question: Which allergic reaction (healthy subjects [1]; Phase 5, one subject withdrawn, facial rash) does the source give for `CCOC(=O)C1(c2ccccc2)CCN(C)CC1` [meperidine] here?
Answer: mild allergic reaction

Question: What about the Systolic blood pressure (healthy subjects [2]; Phase 3a, 180 min timepoint, baseline 122±13, p=0.042) of the same molecule?
Answer: 140±20 mm Hg

Question: What about the “change in heart rate, diastolic blood pressure, or blood oxygenation compared with baseline” value (healthy subjects [2]; Phase 3a, all subjects, during cooling) of the same molecule?
Answer: no statistically significant change

Question: What about the “Time to 35° C.” value (healthy subjects [2]; Phase 3a, five contact-cooling pads, oral acetaminophen 1000 mg, IV meperidine 50-100 mg bolus plus additional doses, tympanic temperature, individual subjects) of the same molecule?
Answer: 64 min and 180 min and 94 min and 56 min and 46 min

Question: And the “Cooling rate to 35° C.” value (healthy subjects [2]; [7])?
Answer: 1.9 ° C./hr (2×) and .9 ° C./hr and 1.2 ° C./hr and 2.1 ° C./hr

Question: And the “Nausea or Vomiting During Treatment” value (healthy subjects [2]; [7])?
Answer: Nausea end (2×) and None and Nausea early, end and Nausea, vomiting mid

Question: What about the “Cooling rate to 35° C., Mean ± SD” value (healthy subjects [2]; [8]) of the same molecule?
Answer: 1.6 ± 0.5 ° C./hr

Question: What about the “Time to 35° C., Mean ± SD” value (healthy subjects [2]; [8]) of the same molecule?
Answer: 88 ± 54 min

Question: And the respiratory compromise (healthy subjects [2]; Phases 1 and 3a)?
Answer: no respiratory compromise

Question: What about the “nausea observed, share of subjects” value (healthy subjects [2]; Phases 1 and 3a pooled, all cases in Phase 3a) of the same molecule?
Answer: 30 % of subjects

Question: What about the “indications of vasodilation (Tdig being larger than Tfore)” value (healthy subjects [2]; Phases 3a, 4 and 5 (no vasodilation drug), early stages of cooling) of the same molecule?
Answer: only a few of the subjects

Question: What about the “Time to 35° C.” value (healthy subjects [3]; four contact pads, acetaminophen 1000 mg, IV meperidine 25-75 mg bolus plus additional doses, chlorpromazine, tympanic temperature, individual subjects) of the same molecule?
Answer: 105 min and 78 min and 41 min and 82 min and 81 min

Question: And the “Nausea or Vomiting During Treatment” value (healthy subjects [3]; meperidine regimen, individual subjects)?
Answer: None

Question: And the “Cooling rate to 35° C., Mean ± SD” value (healthy subjects [3]; [9])?
Answer: 1.5±0.6 ° C./hr and 1.5 ± .6 ° C./hr

Question: What about the “Time to 35° C., Mean ± SD” value (healthy subjects [3]; [9]) of the same molecule?
Answer: 77 ± 23 min

Question: And the “Cooling rate to 35° C.” value (healthy subjects [3]; meperidine regimen, tympanic temperature, individual subjects)?
Answer: 1.0 ° C./hr and 1.5 ° C./hr and 2.6 ° C./hr and 1.2 ° C./hr and 1.4 ° C./hr

Question: How did the nausea (healthy subjects [4]) turn out when `Cc1nccn1CC1CCc2c(c3ccccc3n2C)C1=O` (stereo not drawn) [ondansetron] was run?
Answer: does not experience nausea

Question: What about the “Cumulative Heat Transfer From Subject, 5 Min” value (healthy subjects [1]; Phase 5, 5 Min after initiation of cooling, gross values, corrected values approximately 15% smaller, individual subjects) of the same molecule?
Answer: 53.91 kcal and 37.16 kcal and 48.61 kcal and 45.90 kcal and 44.85 kcal

Question: And the “Cumulative Heat Transfer From Subject, 10 Min” value (healthy subjects [1]; Phase 5, 10 Min after initiation of cooling, gross values, individual subjects)?
Answer: 96.81 kcal and 73.79 kcal and 84.78 kcal and 82.99 kcal and 79.01 kcal

Question: And the “Cumulative Heat Transfer From Subject, 15 Min” value (healthy subjects [1]; Phase 5, 15 Min after initiation of cooling, gross values, individual subjects)?
Answer: 136.59 kcal and 109.68 kcal and 124.12 kcal and 118.51 kcal and 111.35 kcal

Question: What about the “Cumulative Heat Transfer From Subject, 20 Min” value (healthy subjects [1]; Phase 5, 20 Min after initiation of cooling, gross values, individual subjects) of the same molecule?
Answer: 175.59 kcal and 142.73 kcal and 163.01 kcal and 151.96 kcal and 142.43 kcal

Question: And the “Cumulative Heat Transfer From Subject, 25 Min” value (healthy subjects [1]; Phase 5, 25 Min after initiation of cooling, gross values, individual subjects)?
Answer: 214.2 kcal and 169.85 kcal and 200.85 kcal and 184.79 kcal and 172.00 kcal

Question: And the “Cumulative Heat Transfer From Subject, 30 Min” value (healthy subjects [1]; Phase 5, 30 Min after initiation of cooling, gross values, individual subjects)?
Answer: 252.02 kcal and 184.74 kcal and 239.02 kcal and 218.02 kcal and 201.44 kcal

Question: And the “Cumulative Heat Transfer From Subject, 45 Min” value (healthy subjects [1]; Phase 5, 45 Min after initiation of cooling, gross values, individual subjects)?
Answer: 360.32 kcal and 205.19 kcal and 354.67 kcal and 309.30 kcal and 282.20 kcal

Question: And the “Cumulative Heat Transfer From Subject, 60 Min” value (healthy subjects [1]; Phase 5, 60 Min after initiation of cooling, gross values, individual subjects)?
Answer: 466.28 kcal and 212.94 kcal and 467.30 kcal and 346.56 kcal and 353.28 kcal

Question: And the “Cumulative Heat Transfer From Subject, 75 Min” value (healthy subjects [1]; Phase 5, 75 Min after initiation of cooling, gross values, individual subjects)?
Answer: 567.71 kcal and 284.94 kcal and 574.88 kcal and 361.63 kcal and 423.43 kcal

Question: What about the “Cumulative Heat Transfer From Subject, 90 Min” value (healthy subjects [1]; Phase 5, 90 Min after initiation of cooling, gross values, individual subjects) of the same molecule?
Answer: 667.78 kcal and 348.14 kcal and 676.99 kcal and 367.39 kcal and 436.35 kcal

Question: And the “Cumulative Heat Transfer From Subject, 105 Min” value (healthy subjects [1]; Phase 5, 105 Min after initiation of cooling, gross values, individual subjects)?
Answer: 767.83 kcal and 375.85 kcal and 708.76 kcal and 366.43 kcal and 458.46 kcal

Question: What about the “Cumulative Heat Transfer From Subject, 120 Min” value (healthy subjects [1]; Phase 5, 120 Min after initiation of cooling, gross values, individual subjects) of the same molecule?
Answer: 867.73 kcal and 407.01 kcal and 733.20 kcal and 368.56 kcal and 457.78 kcal

Question: And the “effect on incidence of nausea and vomiting” value (healthy subjects [1]; Phase 5, IV ondansetron 8 mg with meperidine, relative to Phases 3a and 4)?
Answer: reduces the incidence of nausea and vomiting

Question: What about the “Time to 35° C.” value (healthy subjects [1]; Phase 5, as Phase 3a (meperidine) plus IV ondansetron 8 mg, individual subjects) of the same molecule?
Answer: 58 min and 88 min and 310 min and 189 min and 60 min and 80 min

Question: What about the “Cooling rate to 35° C.” value (healthy subjects [1]; Phase 5, meperidine plus IV ondansetron 8 mg, individual subjects) of the same molecule?
Answer: 1.4 ° C./hr and 1.6 ° C./hr and 0.5 ° C./hr and 0.6 ° C./hr and 1.9 ° C./hr and 1.5 ° C./hr

Question: And the “Cooling rate to 35° C., Mean ± SD” value (healthy subjects [1]; [10])?
Answer: 1.3 ° C./hr and 1.3 ± 0.6 ° C./hr

Question: What about the “Time to 35° C., Mean ± SD” value (healthy subjects [1]; [10]) of the same molecule?
Answer: 131 ± 100 min

Question: And the “meperidine administration relative to Phase 3a” value (healthy subjects [1]; Phase 5, p=0.26, t-test)?
Answer: trend toward less meperidine administration

Question: What about the mean comfort score (healthy subjects [1]; Phase 5 versus Phases 1, 3a and 4) of the same molecule?
Answer: higher

Question: For `O=C1CC2(CCCC2)CC(=O)N1CCCCN1CCN(c2ncccn2)CC1` [buspirone], which “Cooling rate to 35° C., Mean ± SD” value (healthy subjects [5]; [11]) is on record?
Answer: 1.2 ± 0.4 ° C./hr

Question: And the “Time to 35° C., Mean ± SD” value (healthy subjects [5]; [11])?
Answer: 109 ± 40 min

Question: And the “effect on incidence of nausea” value (healthy subjects [5]; oral buspirone 30-60 mg with meperidine, four subjects)?
Answer: did not reduce the incidence of nausea

Question: Which results are given for `O=S(=O)([O-])[O-].[Mg+2]` [magnesium sulfate]?
Answer: indications of vasodilation (Tdig being larger than Tfore) (healthy subjects [6]; early stages of cooling): seven of eight subjects; Cooling rate to 35° C., Mean ± SD (healthy subjects [6]; [12]): 1.3 ± 0.4 ° C./hr; Time to 35° C., Mean ± SD (healthy subjects [6]; [12]): 86 ± 23 min
